Measured values as given in patent publication US10472381B2, “Sialic acid derivatives” (Reinhard Brossmer, priority 2014, dated 2019).

Target: T1, CD22 (Homo sapiens, UniProt P20273)
T1 construct: The soluble CD22 protein was expressed in the CHO-Lec1 cell line; made in house; host or cells: CHO-Lec1
T1 sequence (P20273 20-687 limits assumed): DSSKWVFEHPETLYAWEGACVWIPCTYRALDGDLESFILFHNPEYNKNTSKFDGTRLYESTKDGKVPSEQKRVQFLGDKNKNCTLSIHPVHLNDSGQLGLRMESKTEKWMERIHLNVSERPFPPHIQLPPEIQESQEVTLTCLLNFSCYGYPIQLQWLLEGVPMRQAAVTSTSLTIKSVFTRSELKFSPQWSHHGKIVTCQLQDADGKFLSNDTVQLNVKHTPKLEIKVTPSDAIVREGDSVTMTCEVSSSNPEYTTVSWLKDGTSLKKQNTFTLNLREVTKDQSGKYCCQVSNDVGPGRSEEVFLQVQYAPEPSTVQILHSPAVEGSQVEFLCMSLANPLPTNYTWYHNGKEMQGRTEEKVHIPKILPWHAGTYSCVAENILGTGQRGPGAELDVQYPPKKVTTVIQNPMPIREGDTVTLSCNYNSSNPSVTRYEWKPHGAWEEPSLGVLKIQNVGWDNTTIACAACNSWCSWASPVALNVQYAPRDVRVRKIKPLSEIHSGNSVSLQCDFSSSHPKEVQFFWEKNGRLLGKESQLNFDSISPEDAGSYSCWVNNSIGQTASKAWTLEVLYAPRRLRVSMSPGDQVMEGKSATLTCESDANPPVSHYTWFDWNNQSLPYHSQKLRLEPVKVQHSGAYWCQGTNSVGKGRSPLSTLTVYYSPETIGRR
Experiment: ELISA-based inhibition assay: inhibition of binding of soluble CD22 to immobilized IgM
Details: for rIP (relative inhibitory potency) / IC50: Table I; for rIP (relative inhibitory potency): relative to reference BPCNeu5Ac (rIP = 1); for IC50: soluble CD22 binding to immobilized IgM
Procedure: The biological activity of the substances was determined in an ELISA-based inhibition assay as described in “Eur. J. Immunol. 2012, 42, 2792-2802”. The sialic acid derivatives of the formula (I) inhibit the binding of soluble CD22 to immobilized IgM in proportion to their affinity for CD22. The soluble CD22 protein was expressed in the CHO-Lec1 cell line and isolated as described by “Eur. J. Immunol. 2012, 42, 2792-2802”. […] The increase in affinity is reported as rIP (relative inhibitory affinity).

[1] = Table IV, relative to reference compound 66 co-tested in the same assay (rIP = 1)
[2] = Table III, relative to reference compound 17 co-tested in the same assay (rIP = 1)
[3] = Table II, relative to reference compound 10 co-tested in the same assay (rIP = 1)

SMILES	rIP [1]	IC50	rIP [2]	also measured
CC(=O)N[C@H]1[C@H]([C@H](O)[C@H](O)CNC(=O)c2cccc3ccccc23)O[C@@](OCCCCCC(=O)[O-])(C(=O)[O-])C[C@@H]1NC(=O)OCc1ccccc1.[Na+].[Na+] [Compound 76]	0.35	–	–	–
COc1ccccc1-c1ccc(C(=O)NC[C@@H](O)[C@@H](O)[C@@H]2O[C@@](OCCCCCC(=O)[O-])(C(=O)[O-])C[C@H](NC(=O)OCc3ccccc3)[C@H]2NC(C)=O)cc1.[Na+].[Na+] [Compound 69]	0.83	–	–	–
CC(=O)N[C@H]1[C@H]([C@H](O)[C@H](O)CNC(=O)Cc2ccc3ccccc3c2)O[C@@](OCCCCCC(=O)[O-])(C(=O)[O-])C[C@@H]1NC(=O)OCc1ccccc1.[Na+].[Na+] [Compound 72]	0.91	–	–	–
CCC(=O)N[C@H]1C[C@](OCCCCCC(=O)[O-])(C(=O)[O-])O[C@@H]([C@H](O)[C@H](O)CNC(=O)c2ccc(-c3ccccc3)cc2)[C@@H]1NC(C)=O.[Na+].[Na+] [Compound 17]	–	12 nM	1	rIP (relative inhibitory potency): 502
CC(=O)N[C@@H]1[C@@H](NC(=O)CN(C)C)[C@H](O)[C@](OCCCCCC(=O)[O-])(C(=O)[O-])O[C@H]1[C@H](O)[C@H](O)CNC(=O)c1ccc(-c2ccccc2)cc1.[Na+].[Na+] [Compound 47]	–	–	–	rIP [3]: 0.18
CC(=O)N[C@@H]1[C@@H](NC(=O)c2ccccc2Cl)[C@H](O)[C@](OCCCCCC(=O)[O-])(C(=O)[O-])O[C@H]1[C@H](O)[C@H](O)CNC(=O)c1ccc(-c2ccccc2)cc1.[Na+].[Na+] [Compound 52]	–	–	–	rIP [3]: 0.12
CC(=O)N[C@H]1[C@H]([C@H](O)[C@H](O)CNC(=O)c2ccc(-c3ccccc3)cc2)O[C@@](OCCCCCC(=O)[O-])(C(=O)[O-])C[C@@H]1NC(=O)OCc1ccccc1.[Na+].[Na+] [Compound 66]	1	–	1.3	–
CC(=O)N[C@@H]1[C@@H](NC(=O)c2ccccc2C)[C@H](O)[C@](OCCCCCC(=O)[O-])(C(=O)[O-])O[C@H]1[C@H](O)[C@H](O)CNC(=O)c1ccc(-c2ccccc2)cc1.[Na+].[Na+] [Compound 51]	–	–	–	rIP [3]: 0.13
CC(=O)N[C@H]1[C@H]([C@H](O)[C@H](O)CNC(=O)c2ccc(-c3ccccc3)cc2)O[C@@](OCCCSCCC(=O)[O-])(C(=O)[O-])C[C@@H]1OS(=O)(=O)[O-].[Na+].[Na+].[Na+] [Compound 20]	–	2 nM	–	rIP (relative inhibitory potency): 3130
CC(=O)N[C@H]1[C@H]([C@H](O)[C@H](O)CNC(=O)c2ccc(-c3ccccc3)cc2)O[C@@](OCCCCCC(=O)[O-])(C(=O)[O-])C[C@@H]1NS(=O)(=O)[O-].[Na+].[Na+].[Na+] [Compound 15]	–	3.2 nM	–	rIP (relative inhibitory potency): 1920
CC(=O)N[C@H]1[C@H]([C@H](O)[C@H](O)CNC(=O)c2ccc(-c3ccccc3)cc2)O[C@@](OCCCCCC(=O)[O-])(C(=O)[O-])C[C@@H]1NC(=O)c1ccccc1.[Na+].[Na+] [Compound 53]	–	–	1.1	–
CC(=O)N[C@H]1[C@H]([C@H](O)[C@H](O)CNC(=O)c2ccc(-c3ccccc3)cc2)O[C@@](OCCCCCC(=O)[O-])(C(=O)[O-])C[C@@H]1NC(=O)c1ccc(O)cc1.[Na+].[Na+] [Compound 62]	–	–	1.7	–
CC(=O)N[C@@H]1[C@@H](NS(C)(=O)=O)[C@H](O)[C@](OCCCCCC(=O)O)(C(=O)O)O[C@H]1[C@H](O)[C@H](O)CNC(=O)c1ccc(-c2ccccc2)cc1 [Compound 11]	–	7.7 nM	–	–
